Experimental data as given in patent US20170362498A1, “USE OF MGDA AS ADDITIVE IN PROCESSES FOR RECOVERING CRUDE OIL AND/OR GAS FROM SUBTERRANEAN FORMATIONS” (BASF SE, priority 2014, published 2017).

Tests used:
[1] = Determination of stability against strong alkali (solid NaOH), visual inspection; settings: for Appearance of test solutions after 96 h of storage: 25 g of 40% by weight aqueous solution, ambient temperature; for Solubility / appearance with increasing NaOH amounts (summary): 40% by weight aqueous solution, 0 to 2.5 g solid NaOH added, up to 96 hours
[2] = Determination of solubility in water (Tsol); assay type: physicochemical; settings: minimum temperature for forming a kinetically stable (clear) 50% by weight solution in water; cooled 30° C./h to precipitation, reheated 1° C./h
Protocol: In each case, the solubility was calculated to refer to pure MGDA, without hydrate water.
The solubility of inventive mixtures and of comparison experiments was determined with an apparatus that allowed heating and cooling down liquid solutions. […] Then, the slurry of crystals of MGDA so obtained was again heated at a speed of 1° C./h until a clear solution was obtained. The slurry/solution was checked for solid particles by visible light scattering detection.
The above tests furnished the minimum temperature, Tsol, for forming a kinetically stable 50% by weight solution of the respective mixture of isomers. A higher temperature Tsol correlates with a lower solubility at ambient temperature.

SMILES	Appearance of test solutions after 96 h of storage ([1]; NaOH added 1.5 g (6 wt. % vs. 40% solution), * = after 48 hours, listed as MGDA: 50% ee)	Appearance of test solutions after 96 h of storage ([1]; NaOH added 2.0 g (8 wt. % vs. 40% solution), * = after 48 hours, listed as MGDA: 50% ee)	Appearance of test solutions after 96 h of storage ([1]; NaOH added 2.5 g (10 wt. % vs. 40% solution), ** = immediately after addition of NaOH, listed as MGDA: 50% ee)	Solubility / appearance with increasing NaOH amounts (summary) ([1]; listed as mixture according to the present invention (50% ee))	Tsol [2] [°C]	Appearance of test solutions after 96 h of storage ([1]; NaOH added 0 g (0 wt. % vs. 40% solution))	Appearance of test solutions after 96 h of storage ([1]; NaOH added 0.5 g (2 wt. % vs. 40% solution))	Appearance of test solutions after 96 h of storage ([1]; NaOH added 1.0 g (4 wt. % vs. 40% solution))	Appearance of test solutions after 96 h of storage ([1]; NaOH added 1.5 g (6 wt. % vs. 40% solution), * = after 48 hours, listed as Racemic MGDA)	Appearance of test solutions after 96 h of storage ([1]; NaOH added 2.0 g (8 wt. % vs. 40% solution), * = after 48 hours, listed as Racemic MGDA)	Appearance of test solutions after 96 h of storage ([1]; NaOH added 2.5 g (10 wt. % vs. 40% solution), ** = immediately after addition of NaOH, listed as Racemic MGDA)	Solubility / appearance with increasing NaOH amounts (summary) ([1]; listed as racemic MGDA)
CC(C(=O)O)N(CC(=O)O)CC(=O)O (stereo not drawn) [ee value 50.0, methyl glycine diacetic acid]	clear liquid	clear liquid	clear liquid	remains clear								
CC(C(=O)O)N(CC(=O)O)CC(=O)O (stereo not drawn) [ee value zero, methyl glycine diacetic acid]					103.8	clear liquid	clear liquid	clear liquid	turbid* liquid	turbid* liquid	turbid, precipitate**	decreases with increasing NaOH amounts
